The results in this text go back to patent publication US20080051418A1, “Arylalkanoic Acid Derivative” (priority 2004, published 2008).

What is called melting point is the temperature, or range, at which the solid turns liquid. Consider `CN(C)CCOc1cc(CCCOc2nn(Cc3ccccc3)cc2CC(=O)O)n(Cc2ccc(Cl)cc2Cl)n1` [Example 96, [1-benzyl-3-(3-{1-(2,4-dichlorobenzyl)-3-[2-(dimethylamino)ethoxy]-1H-pyrazol-5-yl}propoxy)-1H-pyrazol-4-yl]acetic acid], for which the melting point was in the range of 78.3 to 80.8 °C. Molecule `Cc1cc(Cl)ccc1Cn1nc(OC(C)C)cc1CCCOc1ncccc1CC(=O)O` [Example 74, (2-{3-[1-(4-chloro-2-methylbenzyl)-3-isopropoxy-1H-pyrazol-5-yl]propoxy}pyridin-3-yl)acetic acid] had a melting point of 97 to 98 °C. `CC(C)Oc1ccc(CCCOc2cc(CCC(=O)O)n(-c3ccccc3)n2)c(Oc2ccc(C(F)(F)F)cn2)c1` [Example 172, 3-{3-[3-(4-isopropoxy-2-{[5-(trifluoromethyl)pyridin-2-yl]oxy}phenyl)propoxy]-1-phenyl-1H-pyrazol-5-yl}propanoic acid] came in with a melting point of 80 to 82 °C. Next, `CC(C)Oc1ccc(CCCOc2cc(CCC(=O)O)n(C)n2)c(Oc2ncc(Cl)cc2Cl)c1` [Example 140, 3-[3-(3-{2-[(3,5-dichloropyridin-2-yl)oxy]-4-isopropoxyphenyl}propoxy)-1-methyl-1H-pyrazol-5-yl]propanoic acid]: 77 to 78 °C. In turn, `CCOc1ccc(CCCOc2nn(C)cc2CC(=O)O)c(Oc2ccc(Cl)cc2Cl)n1` [Example 135, (3-{3-[2-(2,4-dichlorophenoxy)-6-ethoxypyridin-3-yl]propoxy}-1-methyl-1H-pyrazol-4-yl)acetic acid] gave a melting point of 81 to 83 °C. Molecule `CC(C)Oc1ccc(CCCOc2nn(C)cc2CC(=O)O)c(OCc2ccc(Cl)cc2Cl)c1` [Example 174, [3-(3-{2-[(2,4-dichlorobenzyl)oxy]-4-isopropoxyphenyl}propoxy)-1-methyl-1H-pyrazol-4-yl]acetic acid] registered a melting point of 102 to 103 °C. `CCn1nc(OCCCc2ccc(OCCOC)cc2OCc2ccc(Cl)cc2Cl)cc1CCC(=O)O` [Example 165, 3-(3-{3-{2-[(2,4-dichlorobenzyl)oxy]-4-(2-methoxyethoxy)phenyl}propoxy}-1-ethyl-1H-pyrazol-5-yl)propanoic acid] displayed a melting point of 114 to 116 °C. Next, `COc1cccc(CC(=O)O)c1OCCCc1cc(OC(C)C)nn1Cc1c(F)cccc1Cl` [Example 67, (2-{3-[1-(2-chloro-6-fluorobenzyl)-3-isopropoxy-1H-pyrazol-5-yl]propoxy}-3-methoxyphenyl)acetic acid]: 97 to 98 °C; `CCCOc1cc(CCCOc2nn(C)cc2CC(=O)O)n(Cc2ccc(Cl)cc2Cl)n1` [Example 88, (3-{3-[1-(2,4-dichlorobenzyl)-3-propoxy-1H-pyrazol-5-yl]propoxy}-1-methyl-1H-pyrazol-4-yl)acetic acid]: 77 to 81 °C. Next, `CC(C)Cn1nc(OCCCCc2ccc(OC(C)C)cc2Oc2ncc(C(F)(F)F)cc2Cl)cc1CCC(=O)O` [Example 157, 3-{3-[4-(2-{[3-chloro-5-(trifluoromethyl)pyridin-2-yl]oxy}-4-isopropoxyphenyl)butoxy]-1-isobutyl-1H-pyrazol-5-yl}propanoic acid]: 122 to 123 °C; `CC(C)Cn1nc(OCCCc2ccc(OC(C)C)cc2OCc2ccc(Cl)cc2Cl)cc1CCC(=O)O` [Example 162, 3-[3-(3-{2-[(2,4-dichlorobenzyl)oxy]-4-isopropoxyphenyl}propoxy) -1-isobutyl-1H-pyrazol-5-yl]propanoic acid]: 133 to 134 °C. `CC(C)Oc1ccc(CCCOc2cc(CCC(=O)O)n(C)n2)c(OCc2ccc(Cl)cc2Cl)c1` [Example 161, 3-[3-(3-{2-[(2,4-dichlorobenzyl)oxy]-4-isopropoxyphenyl}propoxy) 1-methyl-1H-pyrazol-5-yl]propanoic acid]: the melting point was 125 to 127 °C. With `CCOc1cc(C(=O)c2ccccn2)ccc1OCCOc1c(CC(=O)O)cccc1OC` [Example 123, (2-{2-[2-ethoxy-4-(pyridin-2-ylcarbonyl)phenoxy]ethoxy}-3-methoxyphenyl)acetic acid] the figure was 184 to 186 °C; with `CC(C)Oc1cc(COc2cc(CCC(=O)O)n(-c3ccccc3)n2)cc(COc2ccc(Cl)cc2Cl)c1` [Example 195, 3-[3-({3-[(2,4-dichlorophenoxy)methyl]-5-isopropoxybenzyl}oxy)-1-phenyl-1H-pyrazol-5-yl]propanoic acid], 108 to 110 °C. The molecule `CC(C)c1nn(Cc2ccc(Cl)cc2Cl)cc1CCCOc1cc(CCC(=O)O)n(-c2ccccc2)n1` [Example 190, 3-(3-{3-[1-(2,4-dichlorobenzyl)-3-isopropyl-1H-pyrazol-4-yl]propoxy}-1-phenyl-1H-pyrazol-5-yl)propanoic acid] yielded a melting point of 105 to 107 °C. In turn, `CC(C)Oc1ccc(CCCOc2cc(CCC(=O)O)n(-c3ccccc3)n2)c(Oc2ccc(Cl)cc2Cl)n1` [Example 171, 3-(3-{3-[2-(2,4-dichlorophenoxy)-6-isopropoxypyridin-3-yl]propoxy}-1-phenyl-1H-pyrazol-5-yl)propanoic acid] registered a melting point of 60 to 62 °C. Next, `CC(C)Oc1cc(Oc2ccc(C(F)(F)F)cn2)ccc1CCCOc1cc(CCC(=O)O)n(-c2ccccc2)n1` [Example 151, 3-{3-[3-(2-isopropoxy-4-{[5-(trifluoromethyl)pyridin-2-yl]oxy}phenyl)propoxy]-1-phenyl-1H-pyrazol-5-yl}propanoic acid]: 129.5 to 130.5 °C.

`COCOc1cc(CCCOc2ncccc2CC(=O)O)n(Cc2ccc(Cl)cc2Cl)n1` [Example 207, (2-{3-[1-(2,4-dichlorobenzyl)-3-(methoxymethoxy)-1H-pyrazol-5-yl]propoxy}pyridin-3-yl)acetic acid] came in with a melting point of 101 to 102 °C. Next, `CC(C)n1nc(COc2ccccc2CC(=O)O)cc1OCc1ccc2ccccc2n1` [Example 55, (2-{[1-isopropyl-5-(quinolin-2-ylmethoxy)-1H-pyrazol-3-yl]methoxy}phenyl)acetic acid]: 116 to 117 °C; `CCCn1nc(OCc2ccc3ccccc3n2)cc1COc1c(CC)cccc1CC(=O)O` [Example 5, (3-ethyl-2-{[1-propyl-3-(quinolin-2-ylmethoxy)-1H-pyrazol-5-yl]methoxy}phenyl)acetic acid]: 118 to 119 °C. Next, `CCCOc1cc(CCCOc2c(CC(=O)O)cccc2OC)n(Cc2ccc3ccccc3n2)n1` [Example 11, (3-methoxy-2-{3-[3-propoxy-1-(quinolin-2-ylmethyl)-1H-pyrazol-5-yl]propoxy}phenyl)acetic acid]: 97 to 98 °C; `CCCOc1cc(CCCOc2c(CC(=O)O)cccc2OC)n(Cc2ccc(Cl)cc2)n1` [Example 81, (2-{3-[1-(4-chlorobenzyl)-3-propoxy-1H-pyrazol-5-yl]propoxy}-3-methoxyphenyl)acetic acid]: 131 to 132 °C. With `CCn1nc(OCCCc2ccc(OC(C)C)cc2OCc2ccc(C(F)(F)F)cc2)cc1CCC(=O)O` [Example 168, 3-{1-ethyl-3-[3-(4-isopropoxy-2-{[4-(trifluoromethyl)benzyl]oxy}phenyl)propoxy]-1H-pyrazol-5-yl}propanoic acid] the figure was 75 to 76 °C. `CCc1cccc(CC(=O)O)c1OCCCn1cc(C(=O)NCc2ccc(C(F)(F)F)cc2)c(OC(C)C)n1` [Example 186, (3-ethyl-2-{3-[3-isopropoxy-4-({[4-(trifluoromethyl)benzyl]amino}carbonyl)-1H-pyrazol-1-yl]propoxy}phenyl)acetic acid] registered a melting point of 107.5 to 108.5 °C. With `CC(C)Oc1cc(CCCOc2cc(CCC(=O)O)n(Cc3ccccc3)n2)n(Cc2ccc(Cl)cc2Cl)n1` [Example 191, 3-(1-benzyl-3-{3-[1-(2,4-dichlorobenzyl) -3-isopropoxy-1H-pyrazol-5-yl]propoxy}-1H-pyrazol-5-yl)propanoic acid] the figure was 123 to 126 °C; with `CCOCc1cc(COc2cc(CCC(=O)O)n(-c3ccccc3)n2)cc(Oc2ncc(C(F)(F)F)cc2Cl)c1` [Example 199, 3-(3-{[3-{[3-chloro-5-(trifluoromethyl)pyridin-2-yl]oxy}-5-(ethoxymethyl)benzyl]oxy}-1-phenyl-1H-pyrazol-5-yl)propanoic acid], 124 to 128 °C; with `CC(C)Oc1ccc(CCCOc2nn(Cc3ccccc3)cc2CC(=O)O)c(OCc2ccc(Cl)cc2Cl)c1` [Example 175, [1-benzyl-3-(3-{2-[(2,4-dichlorobenzyl)oxy]-4-isopropoxyphenyl}propoxy)-1H-pyrazol-4-yl]acetic acid], 103 to 104 °C. Next, `COCCOc1cc(Oc2ccc(C(F)(F)F)cn2)ccc1CCCOc1cc(CCC(=O)O)n(-c2ccccc2)n1` [Example 153, 3-{3-[3-(2-(2-methoxyethoxy)-4-{[5-(trifluoromethyl)pyridin-2-yl]oxy}phenyl)propoxy]-1-phenyl-1H-pyrazol-5-yl}propanoic acid]: 83 to 85 °C.
